Key:
[1] = target: T1, recombinant human ALK5 (TGF-βR1) protein (Homo sapiens, UniProt P36897); experiment: Biochemical ALK5 (TGF-βR1) assay to measure pKi (LANCE Ultra ULight kinase assay); settings: apparent pKi, converted from pIC50 by Cheng-Prusoff
T1 construct: purchased Life Technologies PR9075A
T1 sequence (P36897 34-503): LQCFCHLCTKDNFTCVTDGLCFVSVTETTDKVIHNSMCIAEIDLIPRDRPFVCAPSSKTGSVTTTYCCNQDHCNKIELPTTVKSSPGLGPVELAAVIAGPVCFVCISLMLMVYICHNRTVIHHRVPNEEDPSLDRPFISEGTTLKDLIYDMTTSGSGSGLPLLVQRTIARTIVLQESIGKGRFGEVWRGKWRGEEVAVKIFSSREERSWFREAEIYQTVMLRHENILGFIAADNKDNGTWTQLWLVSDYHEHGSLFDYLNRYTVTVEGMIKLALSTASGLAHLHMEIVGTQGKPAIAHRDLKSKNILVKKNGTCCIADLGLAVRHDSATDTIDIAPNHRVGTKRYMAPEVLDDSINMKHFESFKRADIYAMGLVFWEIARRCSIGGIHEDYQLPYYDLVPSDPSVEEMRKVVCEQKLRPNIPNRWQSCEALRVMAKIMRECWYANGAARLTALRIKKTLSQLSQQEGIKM
In short: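 Cmpd + enzyme, 60 min RT; ATP from 125 μM (5×) stock, 60 min 37 °C; stop 12 mM EDTA/Eu anti-pThr1342 Topo2α Ab (pH 7.0 buffer); TR-FRET 665 nm. DMSO = max, SD-208 = min signal. 4-PL pIC50 → pKi (Cheng-Prusoff).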

[2] = test system: TGF-β-stimulated SMAD3 phosphorylation in BEAS-2B cells; experiment: Cellular ALK5 potency assay, inhibition of TGF-β stimulated pSMAD3 formation in BEAS-2B cells; format: cell-based; settings: Homo sapiens, pSMAD3, TGF-β 10 ng/mL, read-out: BEAS2B pIC50 (converted)
In short: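 Human lung epithelial BEAS-2B cells were preincubated 1 h at 37 °C with compound in HBSS/HEPES/1% BSA, then stimulated 30 min with 10 ng/mL TGF-β. pSMAD3 in lysates was quantified by AlphaLISA relative to untreated stimulated cells; reported as pIC50.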

Ki [1] | Structure (SMILES) | IC50 [2]
0.0398 to 0.316 nM | Cc1cccc(-c2nccc(Nc3ccnc(Nc4csc(C(=O)OCCN5CCC[C@H](N)C5)c4)n3)n2)n1 [Compound 619, 2-[(3S)-3-amino-1-piperidyl]ethyl 4-[[4-[[2-(6-methyl-2-pyridyl)pyrimidin-4-yl]amino]pyrimidin-2-yl]amino]thiophene-2-carboxylate] | 25.1 to 158 nM
0.0398 to 0.316 nM | CCN1CCN(c2ccc(Nc3nccc(Nc4ccnc(-c5cccc(C)n5)n4)n3)cc2)CC1 [Compound 80, N2-[4-(4-ethylpiperazin-1-yl)phenyl]-N4-[2-(6-methyl-2-pyridyl)pyrimidin-4-yl]pyrimidine-2,4-diamine] | 25.1 to 158 nM
0.398 to 3.16 nM | Cc1cccc(-c2nc(Nc3ccnc(Nc4ccc(C(=O)O)cc4)n3)c3cccn3n2)n1 [Compound 1021, 4-[[4-[[2-(6-methyl-2-pyridyl)pyrrolo[2,1-f][1,2,4]triazin-4-yl]amino]pyrimidin-2-yl]amino]benzoic acid] | 25.1 to 158 nM
≤ 0.0316 nM | Cc1cccc(-c2nccc(Nc3ccnc(Nc4cnn(C5CCCNC5)c4)n3)n2)n1 (stereo not shown) [Compound 373, N4-[2-(6-methyl-2-pyridyl)pyrimidin-4-yl]-N2-[1-(3-piperidyl)pyrazol-4-yl]pyrimidine-2,4-diamine] | 200 to 1260 nM
0.0398 to 0.316 nM | COC1(C)CN(Cc2ccc(Nc3nccc(Nc4ccnc(-c5cccc(C)n5)n4)n3)cc2)C1 [Compound 493, N2-[4-[(3-methoxy-3-methyl-azetidin-1-yl)methyl]phenyl]-N4-[2-(6-methyl-2-pyridyl)pyrimidin-4-yl]pyrimidine-2,4-diamine] | 25.1 to 158 nM
0.398 to 3.16 nM | COC(=O)Cc1ccc(Nc2nccc(Nc3nc(-c4cccc(C)n4)nn4cccc34)n2)cc1 [Compound 1019, methyl 2-[4-[[4-[[2-(6-methyl-2-pyridyl)pyrrolo[2,1-f][1,2,4]triazin-4-yl]amino]pyrimidin-2-yl]amino]phenyl]acetate] | 200 to 1260 nM
0.0398 to 0.316 nM | Cc1cccc(-c2nccc(Nc3ccnc(Nc4csc(C(=O)OCCC5CNC5)c4)n3)n2)n1 [Compound 602, 2-(azetidin-3-yl)ethyl 4-[[4-[[2-(6-methyl-2-pyridyl)pyrimidin-4-yl]amino]pyrimidin-2-yl]amino]thiophene-2-carboxylate] | 25.1 to 158 nM
0.398 to 3.16 nM | Cc1cccc(-c2nccc(Nc3ccnc(Nc4cncc(C(=O)OC[C@@H]5CCCNC5)c4)n3)n2)n1 [Compound 595] | 25.1 to 158 nM
0.0398 to 0.316 nM | CCN1CCN(S(=O)(=O)c2ccc(Nc3nccc(Nc4ccnc(-c5cccc(C)n5)n4)n3)cc2)CC1 [Compound 38, N2-[4-(4-ethylpiperazin-1-yl)sulfonylphenyl]-N4-[2-(6-methyl-2-pyridyl)pyrimidin-4-yl]pyrimidine-2,4-diamine] | 25.1 to 158 nM
0.0398 to 0.316 nM | Cc1cccc(-c2nccc(Nc3ccnc(Nc4ccc(CN5CCC[C@H](C(=O)O[C@@H]6CCN(C)C6)C5)cc4)n3)n2)n1 [Compound 486, [(3R)-1-methylpyrrolidin-3-yl] (3S)-1-[[4-[[4-[[2-(6-methyl-2-pyridyl)pyrimidin-4-yl]amino]pyrimidin-2-yl]amino]phenyl]methyl] piperidine-3-carboxylate] | 25.1 to 158 nM
0.398 to 3.16 nM | Cc1cccc(-c2nccc(Nc3ccnc(Nc4ccc(COCCO)cc4)n3)n2)n1 [Compound 513, 2-[[4-[[4-[[2-(6-methyl-2-pyridyl)pyrimidin-4-yl]amino]pyrimidin-2-yl]amino]phenyl]methoxy] ethanol] | 25.1 to 158 nM
0.0398 to 0.316 nM | Cc1cccc(-c2nccc(Nc3ccnc(Nc4cccc(CN5CCOCC5)c4)n3)n2)n1 [Compound 141, N4-[2-(6-methyl-2-pyridyl)pyrimidin-4-yl]-N2-[3-(morpholinomethyl)phenyl] pyrimidine-2,4-diamine] | 25.1 to 158 nM
0.0398 to 0.316 nM | COC(=O)c1cc(Nc2nccc(Nc3ccnc(-c4cccc(C)n4)n3)n2)ccc1N1CCNCC1 [Compound 312, methyl 5-[[4-[[2-(6-methyl-2-pyridyl)pyrimidin-4-yl]amino]pyrimidin-2-yl]amino]-2-piperazin-1-yl-benzoate] | 25.1 to 158 nM
0.0398 to 0.316 nM | Cc1cccc(-c2nccc(Nc3ccnc(Nc4csc(C(=O)O[C@H]5CC[C@@](C)(N)CC5)c4)n3)n2)n1 [Compound 566, (4-amino-4-methyl-cyclohexyl) 4-[[4-[[2-(6-methyl-2-pyridyl)pyrimidin-4-yl]amino]pyrimidin-2-yl]amino]thiophene-2-carboxylate] | 25.1 to 158 nM
3.98 to 31.6 nM | Cc1cccc(-c2nc(Nc3ccnc(Nc4ccc(C(=O)O)cn4)n3)c3cccn3n2)n1 [Compound 1020] | 200 to 1260 nM
3.98 to 31.6 nM | Cc1cccc(-c2nc(Nc3ccnc(Nc4ccc(N5CCOCC5)cc4)n3)ccc2C#N)n1 [Compound 1003, 2-(6-methyl-2-pyridyl)-6-[[2-(4-morpholinoanilino)pyrimidin-4-yl]amino]pyridine-3-carbonitrile] | 200 to 1260 nM
0.0398 to 0.316 nM | Cc1cccc(-c2nccc(Nc3ccnc(Nc4ccc(N5CCOCC5)c(F)c4)n3)n2)n1 [Compound 300, N2-(3-fluoro-4-morpholino-phenyl)-N4-[2-(6-methyl-2-pyridyl)pyrimidin-4-yl]pyrimidine-2,4-diamine] | 25.1 to 158 nM
0.0398 to 0.316 nM | Cc1cccc(-c2nccc(Nc3ccnc(Nc4ccc(C(=O)N5CCN(C(C)C)CC5)cc4)n3)n2)n1 [Compound 317, (4-isopropylpiperazin-1-yl)-[4-[[4-[[2-(6-methyl-2-pyridyl)pyrimidin-4-yl]amino]pyrimidin-2-yl]amino]phenyl]methanone] | 25.1 to 158 nM
0.398 to 3.16 nM | Cc1cccc(-c2nc(Nc3ccnc(Nc4nc(C(=O)O)cs4)n3)c3cccn3n2)n1 [Compound 1022, 2-[[4-[[2-(6-methyl-2-pyridyl)pyrrolo[2,1-f][1,2,4]triazin-4-yl]amino]pyrimidin-2-yl]amino]thiazole-4-carboxylic acid] | 200 to 1260 nM
0.0398 to 0.316 nM | Cc1cccc(-c2nccc(Nc3ccnc(Nc4ccc(S(=O)(=O)N(C)C5CCNCC5)cc4)n3)n2)n1 [Compound 122, N-methyl-4-[[4-[[2-(6-methyl-2-pyridyl)pyrimidin-4-yl]amino]pyrimidin-2-yl]amino]-N-(4-piperidyl)benzenesulfonamide] | 25.1 to 158 nM
0.0398 to 0.316 nM | Cc1cccc(-c2nccc(Nc3ccnc(Nc4cccc(NC(=O)C5(CO)CNC5)c4)n3)n2)n1 [Compound 164, 3-(hydroxymethyl)-N-[3-[[4-[[2-(6-methyl-2-pyridyl)pyrimidin-4-yl]amino]pyrimidin-2-yl]amino]phenyl]azetidine-3-carboxamide] | 25.1 to 158 nM
0.0398 to 0.316 nM | Cc1cccc(-c2nccc(Nc3ccnc(Nc4csc(C(=O)OC[C@H]5CCCCN5)c4)n3)n2)n1 [Compound 588, [(2R)-2-piperidyl]methyl 4-[[4-[[2-(6-methyl-2-pyridyl)pyrimidin-4-yl]amino]pyrimidin-2-yl]amino]thiophene-2-carboxylate] | 25.1 to 158 nM

Structure (SMILES) | Ki [1] | IC50 [2]
Cc1cccc(-c2nccc(Nc3ccnc(Nc4nc(C5=CCNCC5)cs4)n3)n2)n1 [Compound 571, N4-[2-(6-methyl-2-pyridyl)pyrimidin-4-yl]-N2-[4-(1,2,3,6-tetrahydropyridin-4-yl)thiazol-2-yl]pyrimidine-2,4-diamine] | 0.0398 to 0.316 nM | ≤ 20 nM
